Test results: US20230181602A1, “TREATMENT OF NON-ALCOHOLIC STEATOHEPATITIS (NASH)” (DURECT CORPORATION, priority 2020, published 2023)

Legend:
[1] = Single dose safety and pharmacokinetic study in subjects with NASH and control healthy subjects; type: in vivo, human
Method: The present Example was a randomized, dose ranging, single dose safety and pharmacokinetic study of 25HC3S administered to subjects with NASH and control healthy subjects. […] For each cohort, 10 subjects with NASH were enrolled which were further classified into cirrhotic and non-cirrhotic. Each subject received only one dose of study treatment. The second cohort was dosed after a review of safety and tolerability data from Cohort 1.

[2] = Tissue distribution by quantitative whole body autoradiography after single intravenous dose; type: in vivo, Sprague Dawley rats; settings: 10 mg/kg intravenous
Excerpt: (§1) The objectives of this study were to determine the plasma pharmacokinetics of [4-^14C]-25HC3S-derived radioactivity in male Sprague Dawley rats, determine the routes of elimination and excretion mass balance of [4-^14C]-25HC3 S-derived radioactivity in male Sprague Dawley rats, determine the tissue distribution and tissue pharmacokinetics of [4-^14C]-25HC3S-derived radioactivity using quantitative whole body autoradiography methods in male Sprague Dawley and Long Evans rats following a single intravenous (bolus) dose, and to provide plasma, urine, and fecal homogenate samples for metabolite profiling of [4-^14C]-25HC3 S-derived radioactivity.
(§2) Nine male Sprague Dawley rats (Group 1) were designated for the pharmacokinetic phase, 3 male Sprague Dawley rats (Group 2) for the excretion mass balance phase, and 7 male Sprague Dawley rats (Group 3) and 9 male Long Evans rats (Group 4) for the tissue distribution phase. All animals received a single intravenous dose of [^14C]-25HC3S at 10 mg/kg and a target radioactivity of 225 μCi/kg. Blood samples were collected from all Group 1 animals at approximately 0.083, 0.25, 0.5, 1, 2, 4, 8, 12, 24, 48, and 72 hours post-dose. Urine and feces were collected from all Group 2 animals periodically through 168 hours post-dose. […] Following blood collection, animals were euthanized by CO2 inhalation and carcasses frozen in a dry ice/hexane bath for processing by quantitative whole body autoradiography. Whole blood, plasma, urine, feces, cage rinse, and cage wash were analyzed for total radioactivity by liquid scintillation counting.

[3] = Tissue distribution by quantitative whole body autoradiography after single oral (gavage) dose; type: in vivo, Sprague Dawley rats; settings: 75 mg/kg oral
[4] = Plasma pharmacokinetics after single oral (gavage) dose in rats; type: in vivo; settings: 75 mg/kg single oral (gavage) dose
Method: The terminal elimination phase T1/2 was 27.3 hours.

[5] = Excretion after single oral (gavage) dose in rats; type: in vivo; settings: 75 mg/kg single oral (gavage) dose
[6] = Plasma pharmacokinetics of radioactivity after single intravenous dose in rats; type: in vivo, Sprague Dawley rats; settings: 10 mg/kg single intravenous (bolus) dose
Excerpt: as §1, §2

[7] = Metabolite profiling of plasma and feces after oral dose in rats; type: in vivo; settings: 75 mg/kg oral
Method: Radiolabeled components in plasma and feces extracts were profiled and identified using radio-high performance liquid chromatography (HPLC) and high performance liquid chromatography/mass spectrometry (HPLC/MS) methods.
Plasma pools were prepared for Group 1 (75 mg/kg, [^14C]-25HC3S) samples collected at 2, 4, and 6 hours post-dose. […] One metabolite M29 was identified as 25-hydroxycholesterol with 37% ROI and a concentration of 1233 ng-equiv./g.
Feces pools were prepared for Group 2 (75 mg/kg, [^14C]-25HC3S) samples collected from 0 to 24, 24 to 48, 48 to 72, 72 to 96, 96 to 120, 120 to 144, and 144 to 168 hours post-dose. A total of eleven metabolites were identified. None of the metabolites were present at ≥5% of dose. Metabolites present at 2-5% of dose were M1 (4.5% of total dose and 1%-69% ROI), M3 (4.6% of total dose and 1%-44% ROI), M4 (2.0% of total dose and 0%-10% ROI), M8 (3.1% of total dose and 1%-46% ROI), […], and M30 (3.3% of total dose and 0%-5% ROI).

C[C@H](CCCC(C)(C)O)[C@H]1CC[C@H]2[C@@H]3CC=C4C[C@@H](OS(=O)(=O)[O-])CC[C@]4(C)[C@H]3CC[C@]12C.[Na+] [25HC3S sodium]
difference between healthy and NASH subjects in pharmacokinetics (Cmax and AUC) ([1]; 50 mg and 200 mg): no clear difference
increase of geometric mean Cmax in NASH subjects over healthy subjects ([1]; Cohorts 1 and 2): 18-24%
increasing trends in exposure (AUC parameters) in NASH subjects ([1]; NASH versus healthy subjects): up to 31%

C[C@H](CCCC(C)(C)O)[C@H]1CC[C@H]2[C@@H]3CC=C4[14CH2][C@@H](OS(=O)(=O)O)CC[C@]4(C)[C@H]3CC[C@]12C [[4-^14C]-25HC3S]
AUClast in liver [2]: ≤ 364,000 h·ng/g
concentrations in thymus, bone (femur), uveal tract, fat, testes, and brain (approximate) [2]: around 1500 ng-equiv./g
concentrations in thymus, bone (femur), uveal tract, fat, testes, and brain (bound) [2]: < 5000 ng-equiv./g
tissue concentrations by 168 hours postdose [2]: below quantitation limit in all tissues except adrenal gland, harderian gland, liver, and small intestine
tissue:plasma ratio (AUClast), liver [2]: 11.4
tissue:plasma ratio (AUClast), small intestine (wall) [2]: 7.44
tissue distribution of drug and/or its metabolites ([2]; Group 3): broadly distributed and detected by quantitative whole body autoradiography in all tissues except the eye (lens)
plasma:whole blood AUClast ratio [3]: 1.12
skin, thymus, prostate, and pituitary tissue concentrations [3]: < 3000 ng equiv./g
tissue Tmax [3]: ≤ 6 h
tissue concentrations by 168 hours post-dose [3]: near or below the quantitation limit in all tissues except adrenal gland and liver
tissue distribution of drug and/or its metabolites [3]: broadly distributed and detected by quantitative whole body autoradiography in all tissues except the eye (lens)
tissue:plasma ratio (AUClast), adrenal gland [3]: 6.64
tissue:plasma ratio (AUClast), liver [3]: 6.96
tissue:plasma ratio (AUClast), small intestine (wall) [3]: 15.4
uveal tract and brain concentrations [3]: approximately 1000 ng equiv./g
whole blood AUClast [3]: 127,000 h·ng equiv./g
plasma AUClast (radioactivity) [4]: 96,400 h·ng equiv./g
terminal elimination phase T1/2 [4]: 27.3 h
dose recovered in urine, feces, and cage rinse [5]: approximately 94.5%
recovered radioactivity in feces [5]: 94.2%
mean plasma C0 (radioactivity) [6]: 25,900 ng-equiv./g
plasma AUClast (radioactivity) [6]: 27,900 h*ng-equiv./g
terminal elimination phase T1/2, plasma [6]: 26.6 h

desmosterol sulfate
presence in plasma or feces samples [7]: not found
